Results taken from PubChem BioAssay AID330 (DTP/NCI, 2004).
Several values for one entry are separate records, joined by “and”; a condition that tells them apart may be missing. Equal values may be shown once. Toxic doses and inconclusive results are not listed. The calls were made as follows: active = survival T/C of 150% or more; inactive = T/C below 125% in these data.

Tested on: P388 leukemia ip, CD2F1 mice, survival T/C
Test: NCI In Vivo Anticancer Drug Screen. Data for tumor model P388 Leukemia (intraperitoneal) in CD2F1 (CDF1) mice
Conditions: endpoint: median survival time, higher = longer survival
Summary of the method: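 Mice carrying the transplanted tumor received test compound or vehicle. Survival was recorded in each group, and the value is the treated-group measurement divided by that of the vehicle-treated control group.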

[1] = dose: 60.0 mg/kg/injection, schedule: Q01DX005 (ip), vehicle: saline
[2] = dose: 240.0 mg/kg/injection, schedule: Q01DX005 (ip), vehicle: saline
[3] = dose: 12.5 mg/kg/injection, schedule: Q01DX009 (ip), vehicle: Klucel (hydroxypropylcellulose) (HPC)
[4] = dose: 25.0 mg/kg/injection, schedule: Q01DX009 (ip), vehicle: Klucel (hydroxypropylcellulose) (HPC)
[5] = dose: 50.0 mg/kg/injection, schedule: Q01DX009 (ip), vehicle: Klucel (hydroxypropylcellulose) (HPC)
[6] = dose: 100.0 mg/kg/injection, schedule: Q01DX009 (ip), vehicle: Klucel (hydroxypropylcellulose) (HPC)
[7] = dose: 200.0 mg/kg/injection, schedule: Q01DX009 (ip), vehicle: Klucel (hydroxypropylcellulose) (HPC)
[8] = dose: 50.0 mg/kg/injection, schedule: Q01DX005 (ip), vehicle: Klucel (hydroxypropylcellulose) (HPC)
[9] = dose: 100.0 mg/kg/injection, schedule: Q01DX005 (ip), vehicle: Klucel (hydroxypropylcellulose) (HPC)
[10] = dose: 200.0 mg/kg/injection, schedule: Q01DX005 (ip), vehicle: Klucel (hydroxypropylcellulose) (HPC)
[11] = dose: 50.0 mg/kg/injection, schedule: Q01DX009 (ip), vehicle: saline with Tween-80
[12] = dose: 100.0 mg/kg/injection, schedule: Q01DX009 (ip), vehicle: saline with Tween-80
[13] = dose: 200.0 mg/kg/injection, schedule: Q01DX009 (ip), vehicle: saline with Tween-80

Measured: T/C

COc1cccc(C2SCC(=O)N2c2nncs2)c1OC (stereo not given)
inactive: dose: 60.0 mg/kg/injection, schedule: Q01DX005 (ip), vehicle: Klucel (hydroxypropylcellulose) (HPC) 106 % of control | dose: 120.0 mg/kg/injection, schedule: Q01DX005 (ip), vehicle: Klucel (hydroxypropylcellulose) (HPC) 95 % of control | dose: 240.0 mg/kg/injection, schedule: Q01DX005 (ip), vehicle: Klucel (hydroxypropylcellulose) (HPC) 98 % of control

COC(=O)C1(CS(C)(=O)=O)NC(=S)NC(=O)C1C#N (stereo not given)
inactive: [1] 97 % of control | dose: 120.0 mg/kg/injection, schedule: Q01DX005 (ip), vehicle: saline 91 % of control | [2] 91 % of control

C/C=C/c1cc(OC)c2c(c1)[C@H](C)C(c1ccc3c(c1)OCO3)O2 (stereo not given in full)
inactive: dose: 37.5 mg/kg/injection, schedule: Q01DX005 (ip), vehicle: Klucel (hydroxypropylcellulose) (HPC) 97 % of control | dose: 75.0 mg/kg/injection, schedule: Q01DX005 (ip), vehicle: Klucel (hydroxypropylcellulose) (HPC) 86 % of control | dose: 150.0 mg/kg/injection, schedule: Q01DX005 (ip), vehicle: Klucel (hydroxypropylcellulose) (HPC) 88 % of control | dose: 300.0 mg/kg/injection, schedule: Q01DX005 (ip), vehicle: Klucel (hydroxypropylcellulose) (HPC) 91 % of control

CCSc1nc2ccc(N3C(=O)C=CC3=O)cc2s1
inactive: dose: 3.12 mg/kg/injection, schedule: Q01DX009 (ip), vehicle: Klucel (hydroxypropylcellulose) (HPC) 111 % of control | dose: 6.25 mg/kg/injection, schedule: Q01DX009 (ip), vehicle: Klucel (hydroxypropylcellulose) (HPC) 119 % of control | [3] 115 % of control

O=C1OC(/C=C/c2ccccc2)=NC/1=C\c1ccccc1
inactive: dose: 60.0 mg/kg/injection, schedule: Q01DX005 (ip), vehicle: Klucel + Tween-80 103 % of control | dose: 120.0 mg/kg/injection, schedule: Q01DX005 (ip), vehicle: Klucel + Tween-80 99 % of control | dose: 240.0 mg/kg/injection, schedule: Q01DX005 (ip), vehicle: Klucel + Tween-80 97 % of control

Cc1cc(C)c(CC(=O)O)c(C)c1
inactive: [4] 111 % of control | [5] 106 % of control | [6] 105 % of control | [7] 107 % of control

[N-]=[N+]=NP1(=O)OC(c2ccccc2)=CCN1c1ccccc1 (stereo not given)
inactive: [8] 105 % of control | [9] 103 % of control | [10] 100 % of control

COc1nc(N)nc2c1CSc1ccccc1-2
inactive: [8] 97 % of control | [9] 97 % of control | [10] 90 % of control

Cc1nc2c(cnn2CN2CCCCC2)c(=O)n1-c1ccccc1
inactive: [8] 100 % of control | [9] 101 % of control | [10] 107 % of control

CC[As](CC)SC(CC[C@@H](C)C1CC[C@@]2(C)C3=C(CC[C@]12C)[C@@]1(C)CC[C@H](O)C(C)(C)[C@@H]1CC3)C(C)C (stereo not given in full)
inactive: [8] 87 % of control | [9] 92 % of control | [10] 95 % of control

CN(CC(=O)O)N=Nc1ccc(C(N)=O)cc1
inactive: [8] 100 % of control | [9] 96 % of control | [10] 100 % of control

Cc1cc2c(cc1C)NC(c1ccc(C(N)=S)cc1)N2
inactive: dose: 100.0 mg/kg/injection, schedule: Q04DX002 (ip), vehicle: saline with Tween-80 92 % of control | dose: 200.0 mg/kg/injection, schedule: Q04DX002 (ip), vehicle: saline with Tween-80 86 % of control

CCn1c(=O)c2[nH]c(Br)nc2n(CCOC)c1=O
inactive: [5] 90 % of control | [6] 93 % of control | [7] 104 % of control

Cc1c(Cl)c(Cl)nn1C(C)C(=O)N(C)C (stereo not given)
inactive: dose: 100.0 mg/kg/injection, schedule: Q04DX003 (ip), vehicle: Klucel (hydroxypropylcellulose) (HPC) 95 % of control | dose: 200.0 mg/kg/injection, schedule: Q04DX003 (ip), vehicle: Klucel (hydroxypropylcellulose) (HPC) 95 % of control

Clc1nc(Cl)nc(-c2cn(-c3ccccc3)c3ccccc23)n1
inactive: dose: 12.5 mg/kg/injection, schedule: Q01DX009 (ip), vehicle: saline with Tween-80 100 % of control | dose: 25.0 mg/kg/injection, schedule: Q01DX009 (ip), vehicle: saline with Tween-80 90 % of control | [11] 100 % of control

CC(CCc1ccc2c(c1)c(=N)c1ccc(N)cc1n2O)CC(C)(C)C (stereo not given)
inactive: dose: 1.56 mg/kg/injection, schedule: Q04DX002 (ip), vehicle: distilled water + Tween-80 102 % of control and 96 % of control | dose: 3.12 mg/kg/injection, schedule: Q04DX002 (ip), vehicle: distilled water + Tween-80 106 % of control and 94 % of control | dose: 6.25 mg/kg/injection, schedule: Q04DX002 (ip), vehicle: distilled water + Tween-80 100 % of control and 120 % of control | dose: 12.5 mg/kg/injection, schedule: Q04DX002 (ip), vehicle: distilled water + Tween-80 102 % of control and 98 % of control (2×)

O=C(CCl)Nc1ccccc1S(=O)(=O)F
inactive: [3] 100 % of control | [4] 107 % of control | [5] 96 % of control | [6] 107 % of control

CCCCC(NC(C)=O)C(=O)O (stereo not given)
inactive: [11] 99 % of control and 95 % of control | [12] 98 % of control | [13] 100 % of control and 96 % of control | dose: 400.0 mg/kg/injection, schedule: Q01DX009 (ip), vehicle: saline with Tween-80 100 % of control

CC(=O)N1N=C(C)C2ON=C(c3ccc(Cl)cc3)P21 (stereo not given)
inactive: [8] 107 % of control | [9] 100 % of control | [10] 100 % of control

Cc1c([N+](=O)[O-])oc2ccc3ccccc3c12
inactive: dose: 60.0 mg/kg/injection, schedule: Q01DX005 (ip), vehicle: saline with Tween-80 113 % of control | dose: 120.0 mg/kg/injection, schedule: Q01DX005 (ip), vehicle: saline with Tween-80 94 % of control | dose: 240.0 mg/kg/injection, schedule: Q01DX005 (ip), vehicle: saline with Tween-80 107 % of control

CCCCCCC(=O)/C=C/c1c(OC)cc(OC)cc1OC
inactive: [11] 101 % of control | [12] 101 % of control | [13] 97 % of control

O=S(=O)(c1ccc(Cl)cc1)S(=O)(=O)c1ccc(Cl)cc1
inactive: dose: 50.0 mg/kg/injection, schedule: Q01DX009 (ip), vehicle: saline 92 % of control | dose: 100.0 mg/kg/injection, schedule: Q01DX009 (ip), vehicle: saline 97 % of control | dose: 200.0 mg/kg/injection, schedule: Q01DX009 (ip), vehicle: saline 101 % of control

Cc1ccc(S(=O)(=O)NC(=O)/N=C2\NC(=O)CS2)cc1
inactive: dose: 50.0 mg/kg/injection, schedule: Q01DX005 (ip), vehicle: saline with Tween-80 100 % of control | dose: 100.0 mg/kg/injection, schedule: Q01DX005 (ip), vehicle: saline with Tween-80 103 % of control | dose: 200.0 mg/kg/injection, schedule: Q01DX005 (ip), vehicle: saline with Tween-80 91 % of control

Cc1ccc(S(=O)(=O)/C=C/C(=O)c2ccco2)cc1
inactive: dose: 100.0 mg/kg/injection, schedule: Q04DX002 (ip), vehicle: saline 108 % of control | dose: 200.0 mg/kg/injection, schedule: Q04DX002 (ip), vehicle: saline 112 % of control | dose: 400.0 mg/kg/injection, schedule: Q04DX002 (ip), vehicle: saline 100 % of control

COc1nc2c(nc(N)n2C2OC(COC(C)=O)C(OC(C)=O)C(OC(C)=O)C2OC(C)=O)c(=O)n1C (stereo not given)
inactive: [1] 92 % of control | [2] 92 % of control

O=C(CCCN1CCN(c2cc3ccccc3cn2)CC1)c1ccc(F)cc1
inactive: dose: 12.5 mg/kg/injection, schedule: Q01DX005 (ip), vehicle: Klucel (hydroxypropylcellulose) (HPC) 109 % of control | dose: 25.0 mg/kg/injection, schedule: Q01DX005 (ip), vehicle: Klucel (hydroxypropylcellulose) (HPC) 109 % of control | [8] 110 % of control and 115 % of control
